Results taken from US20260200931A1, “PYRIDINE POLYCYCLIC COMPOUND INHIBITOR, PREPARATION METHOD THEREFOR AND USE THEREOF” (SHANGHAI HANSOH BIOMEDICAL CO., LTD, priority 2022, published 2026).
One block for each molecule: values may come before it.

Assays:
human CYP11B1 = target: T1, human CYP11B1 (Homo sapiens, UniProt P15538); test: G-402 cell enzyme experiment, human CYP11B1 (cortisol production, HTRF); selectivity of CYP11B2 over CYP11B1; format: cell-based; conditions: G-402 cells expressing human CYP11B1 or CYP11B2; selectivity for CYP11B2 over CYP11B1
T1 construct: The main elements of an expression plasmid include ORF of human CYP11B1 or human CYP11B2; expressed in transfected cells
T1 sequence (P15538 25-503): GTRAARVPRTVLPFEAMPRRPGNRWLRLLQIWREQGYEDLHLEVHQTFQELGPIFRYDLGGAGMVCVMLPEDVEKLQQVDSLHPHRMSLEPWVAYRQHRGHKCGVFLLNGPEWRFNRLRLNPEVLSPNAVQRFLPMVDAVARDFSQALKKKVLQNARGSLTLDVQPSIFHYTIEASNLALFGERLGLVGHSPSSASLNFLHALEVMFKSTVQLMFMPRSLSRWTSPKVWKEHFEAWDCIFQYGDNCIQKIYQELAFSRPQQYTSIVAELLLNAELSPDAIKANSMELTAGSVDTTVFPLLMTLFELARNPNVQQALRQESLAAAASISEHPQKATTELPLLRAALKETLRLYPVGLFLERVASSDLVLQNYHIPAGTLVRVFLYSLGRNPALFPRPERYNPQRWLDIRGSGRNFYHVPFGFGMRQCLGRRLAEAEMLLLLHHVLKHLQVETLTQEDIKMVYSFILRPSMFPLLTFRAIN
From the text: (§1) G-402 cell line was used as host cells to express (by transient or stable transfection) an enzyme of the human CYP11 family. Specifically, G-402 cell lines stably expressing human CYP11B1 and human CYP11B2 were established respectively. […] Therefore, the G-402 cell line is very suitable as a host cell for the ectopic expression of an enzyme of the CYP11 family.
(§2) The G-402 cell line, originally derived from renal myoblastoma, can be obtained from ATCC (CRL-1440). The main elements of an expression plasmid include ORF of human CYP11B1 or human CYP11B2, a suitable promoter (CMV promoter), and a suitable resistance marker (neomycin). The expression plasmid was transfected into G-402 cells by standard technology, and a specific antibiotic was then given for screening. The activity of the enzyme expressed by the screened monoclonal cells was assessed by 11-deoxycorticosterone (substrate of CYP11B2) and 11-deoxycortisol (substrate of CYP11B1).
(§3) The G-402 cells expressing CYP11 plasmid, as established in the above solution, were cultured in McCoy's 5a Modified Medium (ATCC Catalog No. 30-2007) containing 10% FCS and 400 μg/ml G418 in an incubator at 37° C. and 5% CO2. A cell enzyme experiment was carried out using DMEM/F12 medium containing 2.5% charcoal-treated FBS and an appropriate concentration of a substrate (1 μM 11-deoxycorticosterone or 1 μM 11-deoxycortisol). In order to detect the activity of the enzyme in the cells, the cells were plated in a 96-well plate and incubated for 16 h. The supernatant was then transfered and analyzed for the concentration of the expected product (the product of CYP11B2: aldosterone; the product of CYP11B1: cortisol). The concentrations of these products were determined by an HTRF experiment of CisBio.
(§4) In the cell enzyme experiment, the inhibitory effect of the test compound on the generated product can reflect the inhibitory effect thereof on the enzyme. The dose-dependent inhibition of the enzyme activity by the compound was calculated by plotting the concentration of the test compound (x axis) versus the measured product level (y axis). Then, the original data was fitted to a 4-parameter sigmoidal function (Morgan-Mercer-Flodin, MMF model) by least square method: y=(AB+Cx^D)/(B+x^D) in which A is the maximum y value, B is the EC50 determined by XLFit, C is the minimum y value, and D is the slope value. The maximum value A corresponds to the amount of the product detected without an inhibitor, and C corresponds to the amount of the product detected in the G402 cells expressing an empty plasmid.
(§5) The EC50 value of the compound of the present patent was determined by the above G-402 experiment system. […]

human CYP11B2 = target: T2, human CYP11B2 (Homo sapiens, UniProt P19099); test: G-402 cell enzyme experiment, human CYP11B2 (aldosterone production, HTRF); format: cell-based; conditions: G-402 cells stably expressing human CYP11B2; 1 μM 11-deoxycorticosterone; 16 h; aldosterone by HTRF
T2 construct: The main elements of an expression plasmid include ORF of human CYP11B1 or human CYP11B2; expressed in transfected cells
T2 sequence (P19099 25-503): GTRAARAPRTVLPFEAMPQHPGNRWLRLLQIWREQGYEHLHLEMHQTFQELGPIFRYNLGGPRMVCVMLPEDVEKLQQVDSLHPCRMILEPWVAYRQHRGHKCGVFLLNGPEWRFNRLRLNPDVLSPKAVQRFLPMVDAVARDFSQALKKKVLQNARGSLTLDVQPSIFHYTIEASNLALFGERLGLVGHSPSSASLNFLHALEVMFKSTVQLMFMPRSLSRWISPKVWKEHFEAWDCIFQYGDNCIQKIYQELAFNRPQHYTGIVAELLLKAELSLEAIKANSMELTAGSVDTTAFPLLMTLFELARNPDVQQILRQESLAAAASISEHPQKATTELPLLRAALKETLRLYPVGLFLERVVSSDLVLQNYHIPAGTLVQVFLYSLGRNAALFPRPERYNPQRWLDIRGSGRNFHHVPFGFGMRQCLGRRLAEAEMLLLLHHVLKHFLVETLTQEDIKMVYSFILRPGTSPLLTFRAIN
From the text: as §1, §2, §3, §4, §5

[1] = Pharmacokinetic assay in mice; format: in vivo; conditions: mouse, male Balb/c mice, plasma, table does not print the route (objective: oral administration, PO 5 mg/kg)
Experimental: Balb/c mice were used as test animals to study the pharmacokinetic behavior of the compounds of the present disclosure in mice (plasma) after oral administration.
Compounds of the present disclosure, made in house.
3 Balb/c mice per group, male; from Shanghai Bk Lab Animal Co., Ltd., with animal production license number (SCXK (Shanghai) 2013-0006 N0.311620400001794).
0.5 g of sodium carboxymethyl cellulose (CMC-Na, viscosity: 800-1200 Cps) was weighed and dissolved in 99 mL of purified water, and 1 ml of Tween 80 was added. These materials were uniformly mixed to form a clear solution.
Examples 1 and 2 were weighed and dissolved in the solution, and the mixtures were shaken well and ultrasonicated for 15 min to obtain colorless clear solutions with a concentration of 0.5 mg/mL.
Examples 1 and 2 were weighed, and 5% of DMSO was added based on the total administration volume; the mixture was vortexed and ultrasonicated for 2 min to ensure complete dissolution; then, 10% Solutol HS15 was added, and the mixture was vortexed and ultrasonicated for 2 min to achieve complete dissolution; finally, 85% PBS was added, and the mixture was vortexed and ultrasonicated for 5 min; the resulting mixture was filtered through a […] filter membrane to obtain a colorless, transparent, and clear solution with a concentration of 0.2 mg/mL.
After overnight fasting, 3 male Balb/c mice per group were administered orally (PO) at a dose of 5 mg/kg with an administration volume of 10 mL/kg.
After overnight fasting, 3 male Balb/c mice per group were administered intravenously (IV) at a dose of 1 mg/kg with an administration volume of 5 mL/kg.
0.04 mL of blood was collected from the orbit of the experimental animals before administration and at 0.25 h, 0.5 h, 1.0 h, 2.0 h, 4.0 h, 6.0 h, 8.0 h, and 24.0 h after administration and placed in an EDTA-2K test tube, and the test tube was centrifuged at 8000 rpm for 6 min at 4° C. to separate the plasma, which was stored at −80° C.; and the animals were fed 4 h after administration.
The final determination results were obtained by using LCMS/MS method.

cortisol = test: In vivo efficacy assay, ACTH challenge: plasma cortisol; design: species or system cynomolgus monkeys; conditions: for Cortisol, 0: 0 hour after 5 μg/kg ACTH I.V. (given one hour after dosing); for Cortisol, 1 h: 1 h after 5 μg/kg ACTH I.V.
Experimental: (§6) Male cynomolgus monkeys were gavaged (P.O.) with the compounds to be tested and divided into 0 mpk (vehicle group), 0.1 mpk, 0.3 mpk, 1 mpk, and 3 mpk dose groups. Each group was given 5 μg/kg ACTH intravenous injection (I.V.) after one hour. Blood samples were collected at −1 hour, 0 hour, 0.5 hours, 1.0 hour, 1.5 hours, 2 hours, and 3 hours after intravenous injection of ACTH. The volume was about 0.5 mL at each time point. The samples were centrifuged (3200 g, at 2-8° C. for 10 minutes) within one hour after collection. The contents of the plasma aldosterone, cortisol, corticosterone, 11-deoxycortisol, and 11-deoxycorticosterone at each time point were then analyzed by LC/MS-MS method.

aldosterone = test: In vivo efficacy assay, ACTH challenge: plasma aldosterone; design: species or system cynomolgus monkeys; conditions: for Aldosterone, 0: 0 hour after 5 μg/kg ACTH I.V. (given one hour after dosing); for Aldosterone, 0.5 h: 0.5 h after 5 μg/kg ACTH I.V.
Experimental: as §6

- hsF (human selective factor: ratio of CYP11B1 EC50 to CYP11B2 EC50) (human CYP11B1): 174×
Structure (SMILES): CCC(=O)N[C@@H]1CCCc2c(-c3ccc4c(c3)OCC(=O)N4C)cncc21 [Example 2-A]

- AUC(0-inf) [1]: 20800 ng·h/mL
- AUC(0-t) [1]: 20800 ng·h/mL
- Cmax [1]: 3770 ng/mL
- Tmax [1]: 0.3 h
- half-life [1]: 2.7 h
- MRT inf ([1]; read-out: MRT0-∞): 4.7 h
- EC50 (human CYP11B2): 70 nM
- hsF (human selective factor: ratio of CYP11B1 EC50 to CYP11B2 EC50) (human CYP11B1): 144×
Structure (SMILES): CCC(=O)N[C@@H]1CCCc2c(-c3ccc4c(c3)COC(=O)N4C)cncc21 [Example 1-A]
- Cortisol, 0 (cortisol; 0.1 mpk P.O.): 246 ng/mL
- Cortisol, 1 h (cortisol; 0.1 mpk P.O.): 360 ng/mL
- Cortisol, 0 (cortisol; 0.3 mpk P.O.): 230 ng/mL
- Cortisol, 1 h (cortisol; 0.3 mpk P.O.): 355 ng/mL
- Cortisol, 0 (cortisol; 1 mpk P.O.): 215 ng/mL
- Cortisol, 1 h (cortisol; 1 mpk P.O.): 315 ng/mL
- Cortisol, 0 (cortisol; 3 mpk P.O.): 225 ng/mL
- Cortisol, 1 h (cortisol; 3 mpk P.O.): 326 ng/mL
- Aldosterone, 0 (aldosterone; 0.1 mpk P.O.): 0.38 ng/mL
- Aldosterone, 0.5 h (aldosterone; 0.1 mpk P.O.): 0.33 ng/mL
- Aldosterone, 0 (aldosterone; 0.3 mpk P.O.): 0.23 ng/mL
- Aldosterone, 0.5 h (aldosterone; 0.3 mpk P.O.): 0.17 ng/mL
- Aldosterone, 0 (aldosterone; 1 mpk P.O.): 0.12 ng/mL
- Aldosterone, 0.5 h (aldosterone; 1 mpk P.O.): 0.15 ng/mL
- Aldosterone, 0 (aldosterone; 3 mpk P.O.): 0.13 ng/mL
- Aldosterone, 0.5 h (aldosterone; 3 mpk P.O.): 0.09 ng/mL

Further lines, the molecule ahead of its results:

Structure (SMILES): CN1C(=O)CCc2cc(-c3cncc4c3CCC[C@H]4NC(=O)CC34CC(C3)C4)ccc21 [Example 37]
- EC50 (human CYP11B2): 35 nM

Structure (SMILES): CN1C(=O)OCc2cc(-c3cncc(C4=CCN(S(=O)(=O)C5CC5)CC4)c3)ccc21 [Example 68, 6-(1′-(Cyclopropylsulfonyl)-1′,2′,3′,6′-tetrahydro-[3,4′-bipyridine]-5-yl)-1-methyl-1,4-dihydro-2H-benzo[d][1,3]oxazin-2-one]
- EC50 (human CYP11B2): 7 nM
- hsF (human selective factor: ratio of CYP11B1 EC50 to CYP11B2 EC50) (human CYP11B1): 394×

Structure (SMILES): CN1C(=O)OCc2cc(-c3cncc(N4CC5(CN(C(=O)c6cnn(C)c6)C5)C4)c3)ccc21 [Example 60, 1-Methyl-6-(5-(6-(1-methyl-1H-pyrazole-4-carbonyl)-2,6-diazaspiro[3.3]heptan-2-yl)pyridin-3-yl)-1,4-dihydro-2H-benzo[d][1,3]oxazin-2-one]
- hsF (human selective factor: ratio of CYP11B1 EC50 to CYP11B2 EC50) (human CYP11B1): >1279×

Structure (SMILES): CCS(=O)(=O)N1CC(Oc2cncc(-c3ccc4c(c3)COC(=O)N4C)c2)C1 [Example 58, 6-(5-((1-(Ethylsulfonyl)azetidin-3-yl)oxy)pyridin-3-yl)-1-methyl-1,4-dihydro-2H-benzo[d][1,3]oxazin-2-one]
- EC50 (human CYP11B2): 48 nM
